{"source": "paper PMC6224480", "about": "“Insights into Kinesin-1 Activation from the Crystal Structure of KLC2 Bound to JIP3” (Structure(London, England:1993), 2018)", "key": {"[1]": {"target": "T1, KLC2^TPR-myc (Mus musculus, UniProt O88448)", "T1 construct": "comprised murine KLC2 residues 191-480; His6-SUMO (N, cleaved yes); made in house; host or cells: E. coli BL21(DE3) Rosetta", "T1 sequence (O88448 191-480)": "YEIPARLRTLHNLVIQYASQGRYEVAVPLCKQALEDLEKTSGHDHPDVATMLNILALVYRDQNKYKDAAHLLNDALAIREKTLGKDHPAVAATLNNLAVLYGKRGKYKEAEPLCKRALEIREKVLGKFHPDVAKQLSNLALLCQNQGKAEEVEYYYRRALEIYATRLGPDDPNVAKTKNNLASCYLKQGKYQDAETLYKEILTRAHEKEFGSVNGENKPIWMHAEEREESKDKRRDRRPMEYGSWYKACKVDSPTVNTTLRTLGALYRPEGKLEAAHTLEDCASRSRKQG", "assay": "Fluorescence anisotropy-based binding competition against FITC-LFP motif peptide", "design": "species or system murine", "details": "FITC-LFP peptide 300 nM, KLC2^TPR-myc 21 μM, Trp-JIP3^LZ two independent experiments, CSTN-WD1 one experiment", "source_text": "Kinesin-1 activation by JIP3 requires JIP3^LZ binding to KLC^TPR ([Watt et al., 2015]). How does JIP3^LZ binding to the KLC^TPR relieve KLC regulation of the kinesin-1 molecule? Tryptophan-acidic cargoes activate kinesin-1 by releasing the KLC LFP motif from the KLC^TPR ([Yip et al., 2016]). […] We therefore wondered whether JIP3^LZ binding to the KLC2^TPR allosterically regulates interactions between KLC2^TPR and the LFP motif. We investigated this using an in vitro, fluorescence anisotropy-based binding competition assay with purified proteins and peptides ([Yip et al., 2016]). […] Thus, JIP3 activates kinesin-1 by a different mechanism to tryptophan-acidic cargoes.\nThe binding affinity between the FITC-labelled LFP-motif peptide and the KLC2^TPR-myc was measured essentially as described previously ([Yip et al., 2016]). FITC-labelled LFP motif peptide (300 nM) was incubated with 2-fold dilutions of KLC2^TPR-myc in assay buffer (0.1 M NaCl, 25 mM HEPES, 5 mM MgCl2, 1 mM TCEP, final pH 7.5) in triplicate in 384-well plates, for 1 hour at room temperature. Fluorescence measurements were recorded on a TecanSpark plate reader at excitation and emission wavelengths of 488 nm and 535 nm respectively. Fluorescence anisotropy values were calculated at each KLC2^TPR-myc concentration and the data were fitted with a fixed-slope dose response curve in Prism (GraphPad). […]"}, "[2]": {"system": "KLC2 L220Y mutant", "assay": "ITC of FITC-CSTN-WD2 peptide into L220Y KLC2^TPR-myc", "type": "binding, murine", "details": "25°C, 0.1 M NaCl, n = 2", "method": "(§1) The Trp-JIP3^LZ protein used for CD and ITC experiments was prepared as described above for the JIP3^LZ, with the following modifications. Following 3C cleavage, contaminating GST3C was removed by incubation of the eluate with fresh, pre-equilibrated glutathione sepharose 4B resin for 2 hours at room temperature. The Trp-JIP3^LZ was then further purified by size exclusion chromatography using a Superdex 75 16/600 column equilibrated in 100 mM NaCl, 25 mM HEPES, 1 mM TCEP (final pH 7.5). Wild-type/mutant KLC2^TPR-myc samples used for CD and ITC experiments were prepared as described above the KLC2^TPR used in crystallographic studies. The Trp-JIP3^LZ and KLC2^TPR-myc samples used in the fluorescence anisotropy-based binding competition assays were prepared as for those used in the CD and ITC studies, but the final size-exclusion step was performed in 100 mM NaCl, 25 mM HEPES, 5mM MgCl2, 1 mM TCEP (final pH 7.5).\n(§2) To study binding of the Trp-JIP3^LZ and FITC-CSTN-WD2 peptide to wild-type and mutant KLC2^TPR-myc, the recombinant proteins were prepared by size exclusion chromatography in 0.1 M NaCl, 25 mM HEPES, 1 mM TCEP, final pH 7.5. Wild-type or mutant KLC2^TPR-myc at 44-50 μM were placed in the cell. The Trp-JIP3^LZ was used as the titrant at dimer concentrations of 297-330 μM. […] The peptide concentration was determined by measuring the absorbance at 483 nm and using a molar extinction coefficient of 68,000 M^-1cm^-1. […] The resulting isotherms were analysed in SEDPHAT. Data for the Trp-JIP3^LZ as titrant were fitted with the A + B + B → AB + B → ABB model, whilst binding of the FITC-CSTN-WD2 peptide was analysed using the A + B → AB model. […] During fitting, the FITC-CSTN-WD2 peptide concentrations consistently refined to values around 30% greater than the measured value of 380 μM, with Napp values around 0.7 (Table S2). We ascribe this to an under-quantification of the FITC-CSTN-WD2 peptide concentration since the peptide contains a single tryptophan-acidic motif, and the concentration values for experiments with Trp-JIP3^LZ as ligand refined close to their measured values."}, "[3]": {"system": "KLC2^TPR-myc Thr^200Asp (T200D)", "assay": "ITC of FITC-CSTN-WD2 peptide into T200D KLC2^TPR-myc", "type": "binding, murine", "details": "25°C, 0.1 M NaCl, n = 3", "source_text": "(§3) The KLC2^TPR construct used in this work comprised murine KLC2 residues 191-480, which is similar to those used in previous studies ([Nguyen et al., 2017], [Zhu et al., 2012]) but with a slightly longer N-terminal region to include residues 191-194, which are very highly conserved in Bilaterian KLCs. To construct the pMW-His6-SUMO-KLC2^TPR vector, the sequence encoding KLC2^TPR (residues 191-480) was amplified by PCR from a murine template ([Dodding et al., 2011]) and cloned into the NotI/EcoRI sites of pMW his-SUMO. The His6-SUMO- KLC2^TPR-myc vectors were constructed likewise, but using a reverse primer sequence encoding the KLC^TPR C-terminal region up to residue 480, a BglII site, and an in-frame myc-tag sequence, thus fusing the amino acid sequence […] to the KLC2^TPR C-terminus. KLC2^TPR-myc mutants (Thr^200Asp, Tyr^208Ala, Gln^223Lys and Arg^312Glu) were generated by overlap PCR.\nThe Trp-JIP3^LZ protein used for CD and ITC experiments was prepared as described above for the JIP3^LZ, with the following modifications. […] The Trp-JIP3^LZ and KLC2^TPR-myc samples used in the fluorescence anisotropy-based binding competition assays were prepared as for those used in the CD and ITC studies, but the final size-exclusion step was performed in 100 mM NaCl, 25 mM HEPES, 5mM MgCl2, 1 mM TCEP (final pH 7.5).\nas §2, with “7.5.” for “7.5. Wild-type or mutant KLC2^TPR-myc at 44-50 μM were placed in the cell. The Trp-JIP3^LZ was used as the titrant at dimer concentrations of 297-330 μM.”, “We ascribe this to an under-quantification of the FITC-CSTN-WD2 peptide concentration since the peptide contains a single tryptophan-acidic motif, and the concentration values for experiments with Trp-JIP3^LZ as ligand refined close to their measured values.” left out"}, "[4]": {"system": "KLC2^TPR-myc Tyr^208Ala (Y208A)", "assay": "ITC of FITC-CSTN-WD2 peptide into Y208A KLC2^TPR-myc", "type": "binding, murine", "details": "n = 2", "source_text": "as §3\nas §1, with “Wild-type/mutant KLC2^TPR-myc samples used for CD and ITC experiments were prepared as described above the KLC2^TPR used in crystallographic studies.” left out\nas §2, with “7.5.” for “7.5. Wild-type or mutant KLC2^TPR-myc at 44-50 μM were placed in the cell. The Trp-JIP3^LZ was used as the titrant at dimer concentrations of 297-330 μM.”"}, "[5]": {"system": "wild-type and mutant KLC2^TPR-myc", "assay": "ITC with wild-type and/or TPR1-mutant KLC2^TPR-myc (collective statements)", "type": "binding, murine", "method": "as §1\nTo study binding of the Trp-JIP3^LZ and FITC-CSTN-WD2 peptide to wild-type and mutant KLC2^TPR-myc, the recombinant proteins were prepared by size exclusion chromatography in 0.1 M NaCl, 25 mM HEPES, 1 mM TCEP, final pH 7.5. […] The peptide concentration was determined by measuring the absorbance at 483 nm and using a molar extinction coefficient of 68,000 M^-1cm^-1. […] The resulting isotherms were analysed in SEDPHAT. […]"}, "[6]": {"system": "wild-type KLC2^TPR-myc", "assay": "ITC of Trp-JIP3^LZ or FITC-CSTN-WD2 peptide into wild-type KLC2^TPR-myc", "type": "binding, murine", "details": "n = 2", "method": "as §1\nTo study binding of the Trp-JIP3^LZ and FITC-CSTN-WD2 peptide to wild-type and mutant KLC2^TPR-myc, the recombinant proteins were prepared by size exclusion chromatography in 0.1 M NaCl, 25 mM HEPES, 1 mM TCEP, final pH 7.5. Wild-type or mutant KLC2^TPR-myc at 44-50 μM were placed in the cell. The Trp-JIP3^LZ was used as the titrant at dimer concentrations of 297-330 μM. The FITC-CSTN-WD2 peptide was used as the titrant at a concentration of 380 μM. The peptide concentration was determined by measuring the absorbance at 483 nm and using a molar extinction coefficient of 68,000 M^-1cm^-1. ITC experiments were performed as described above with injections spaced 120-150 s apart. Thermograms were integrated and corrected for heats of dilution using NITPIC (http://biophysics.swmed.edu/MBR/software.html). The resulting isotherms were analysed in SEDPHAT. Data for the Trp-JIP3^LZ as titrant were fitted with the A + B + B → AB + B → ABB model, whilst binding of the FITC-CSTN-WD2 peptide was analysed using the A + B → AB model. Between 2 and 3 experiments were performed for each titrand/titrant pair. For each titrand/titrant pair, the isotherms from the experiments were globally fitted with the relevant model. […] During fitting, the FITC-CSTN-WD2 peptide concentrations consistently refined to values around 30% greater than the measured value of 380 μM, with Napp values around 0.7 (Table S2). We ascribe this to an under-quantification of the FITC-CSTN-WD2 peptide concentration since the peptide contains a single tryptophan-acidic motif, and the concentration values for experiments with Trp-JIP3^LZ as ligand refined close to their measured values."}, "[7]": {"details": "25 mM HEPES, 1 mM TCEP, pH 7.5, A + B → AB model, global fit"}, "[8]": {"details": "25°C, 0.1 M NaCl, pH 7.5, global fit"}, "[9]": {"details": "FITC-CSTN-WD2, 25°C, 0.1 M NaCl, pH 7.5, global fit"}}, "note": "No end group written: not given here. *: point of attachment. FITC = O=C1OC2(c3ccc(O)cc3Oc3cc(O)ccc32)c2ccc(NC(=S)*)cc21", "data": [{"substance": "Ac-GKENEMDWDDSALTITVN [CSTN-WD1]", "values": [{"measurement": "effect on binding of KLC2^TPR-myc to FITC-labeled LFP motif peptide", "setting": "[1]", "value": "blocked binding"}]}, {"substance": "{FITC}-TRQLEWDDSTL-OH [FITC-CSTN-WD2, FITC-labeled tryptophan-acidic calsyntenin-1 peptide]", "values": [{"measurement": "K, macroscopic association constant", "setting": "[2]; [7]", "value": 0.739, "unit": "µM⁻¹"}, {"measurement": "-TΔS", "setting": "[2]; pH 7.5, global fit", "value": -4.104, "unit": "kcal/mol"}, {"measurement": "ΔH", "setting": "[2]; pH 7.5, global fit", "value": -3.902, "unit": "kcal/mol"}, {"measurement": "K, macroscopic association constant", "setting": "[3]; [7]", "value": 0.845, "unit": "µM⁻¹"}, {"measurement": "-TΔS", "setting": "[3]; pH 7.5, global fit", "value": -3.911, "unit": "kcal/mol"}, {"measurement": "ΔH", "setting": "[3]; pH 7.5, global fit", "value": -4.174, "unit": "kcal/mol"}, {"measurement": "K, macroscopic association constant", "setting": "[4]; 25°C, 0.1 M NaCl, 25 mM HEPES, 1 mM TCEP, pH 7.5, A + B → AB model, global fit", "value": 0.541, "unit": "µM⁻¹"}, {"measurement": "-TΔS", "setting": "[4]; [8]", "value": -4.463, "unit": "kcal/mol"}, {"measurement": "ΔH", "setting": "[4]; [8]", "value": -3.358, "unit": "kcal/mol"}, {"measurement": "Napp, apparent binding stoichiometry", "setting": "[4]; mean ± standard deviation", "value": "0.67 ± 0.07"}, {"measurement": "Napp values", "setting": "[5]; FITC-CSTN-WD2, wild-type and mutant KLC2^TPR-myc, ascribed to under-quantification of the peptide concentration", "value": "around 0.7"}, {"measurement": "effect of the three TPR1 mutations on binding", "setting": "[5]; all three mutations in TPR1 of KLC2^TPR-myc, ITC", "value": "only minor effects on binding"}, {"measurement": "K, macroscopic association constant", "setting": "[6]; FITC-CSTN-WD2, 25°C, 0.1 M NaCl, 25 mM HEPES, 1 mM TCEP, pH 7.5, A + B → AB model, global fit", "value": 0.820, "unit": "µM⁻¹"}, {"measurement": "-TΔS", "setting": "[6]; [9]", "value": -3.762, "unit": "kcal/mol"}, {"measurement": "ΔH", "setting": "[6]; [9]", "value": -4.305, "unit": "kcal/mol"}, {"measurement": "Napp, apparent binding stoichiometry", "setting": "[6]; FITC-CSTN-WD2, mean ± standard deviation", "value": "0.67 ± 0.08"}]}]}
